From patent publication US20250290117A1, “MOLECULAR PHENOTYPIC ANTIMICROBIAL SUSCEPTIBILITY TESTING” (priority 2024, published 2025)

Experiments:
[1] = test system: E. coli; test: Molecular phenotypic antimicrobial susceptibility test with direct PCR (no extraction DNA purification step); type: cell-based, Escherichia coli
Procedure: Detection of Molecular Phenotypic Antimicrobial Susceptibility. Disclosed herein are the methods for the detection of phenotypic antimicrobial susceptibility via molecular methods. The present invention describes how a specimen 100 with a known microbial load is incubated and then exposed to a panel of antimicrobial agents to determine sensitivity (prevention of growth) or resistance (allowance of growth) to the specific antimicrobial agents tested utilizing molecular methods.
Sample Collection. Specimens 100 are collected from patients using sterile collection processes that are employed in routine clinical care. Specimens are transported to the testing facility in boric acid preservative. Specimens 100 are subsequently divided into a first sample 104 and a second sample 108.
Preparation of the Specimens for Testing. The specimens 100 are put through a pathogen identification process using PCR technology (e.g., using the first sample 104). The process for pathogen isolation includes steps of harvesting the pathogen (e.g., via centrifugation), isolating pathogen DNA via a DNA isolation and/or purification kit, and performing PCR on the pathogen DNA via PCR components (e.g., primers, enzymes, buffers) as would be known to the skilled artisan. Simultaneously, an additional aliquot of the same specimen (e.g., the second sample 108) is placed with liquid culture media and incubated for 4-6 hours. This aliquot is used for antimicrobial susceptibility testing if indicated based on the pathogen detection results. After pathogen identification is completed and if more than 10,000 cells/mL of bacteria (e.g., eligible bacteria) are detected in the source specimen, the second sample 108 then enters the antimicrobial susceptibility phase of testing. Specimens 100 with lower pathogen loads could also be utilized in the antibiotic susceptibility phase of testing with or without a longer incubation period.
Preparation of Antimicrobial Susceptibility Testing Plates. Antimicrobial solutions are prepared at known concentrations. The specific antimicrobials and their concentrations are selected based on the pathogen of interest and the described antimicrobial resistance breakpoints for that specimen pathogen and antimicrobial combination. These antimicrobials have been selected based on those commonly utilized by healthcare providers in routine clinical care for the specific type of suspected infection. The number and types of antimicrobials utilized can be customized based on the infection source, pathogen detected, patient-specific factors such as allergies or other health conditions (e.g., chronic kidney disease or concurrent medication use), or healthcare provider preferences such as antimicrobial availability or cost.
The antimicrobial solutions are prepared in liquid culture media (such as Muller Hinton Broth) to achieve the desired antimicrobial concentration and are then stored at −80° C. until use. For a given specimen, each antimicrobial is tested at a single or multiple antimicrobial concentration(s) which is its established breakpoints for sensitivity. The antimicrobial solutions are prepared and plated out for each specific pathogen. This allows ease of use on the day of testing after defrosting the plate 112. Table 1, which illustrates the results of molecular phenotypic antimicrobial susceptibility testing when more than one organism is present in the source specimen, provides an example of an antimicrobial plate 112 prepared for this purpose. Of note, control wells containing only culture media are present on all plates 112. This allows for evaluation of pathogen load when no antimicrobial is present.
Specimen Exposure to Antimicrobial Agents. The 1 mL aliquot of the specimen 100 previously mixed with culture media and incubated is obtained. Using optical density measurements as a guide, the specimen 100 is diluted to 0.5 McFarland. […]

[2] = test system: Acinetobacter baumannii; test: Traditional culture-based antimicrobial susceptibility test; type: cell-based
Text: Table 2 illustrates the results of an example antimicrobial agent susceptibility test of the current application versus a traditional culture-based antimicrobial agent susceptibility test for […], in accordance with one or more embodiments of the disclosure. This specimen underwent extraction and/or DNA purification prior to PCR. As in Table 1, the results of the test of the current application are similar to the results from the traditional test.
Result Reporting to Healthcare Providers. The results from the antimicrobial exposure are reported to the ordering healthcare provider. This information can be utilized by the healthcare provider when selecting an antimicrobial regimen for their individual patient based on these individual specimen results and patient specific factors. […] The current standard of care for antimicrobial susceptibility testing involves the growth, isolation, and exposure of pathogens to antimicrobials. This traditional culture and sensitivity process can take multiple days to obtain results, limiting the ability of healthcare providers to receive timely results to make actionable changes in patient care or management. Healthcare providers desire a method to obtain antimicrobial susceptibility results with quicker turn-around-time. This application discloses a molecular-based phenotypic antimicrobial susceptibility method which involves pathogen exposure to a panel of antimicrobial agents at their specified minimum inhibitory concentration breakpoints for sensitivity. This method allows for more timely antimicrobial susceptibility results.

[3] = E. coli #1 - WDCM 00090 - 6.2×E3, specimen with <10,000 cells/mL, direct PCR after 16 hours of incubation
[4] = E. coli #1 - WDCM 00090 - 6.2×E3, specimen with <10,000 cells/mL, direct PCR after 16 hours of incubation, Ct at control 13.787
[5] = E. coli #2 - WDCM 00090 - 6.2×E3, specimen with <10,000 cells/mL, direct PCR after 16 hours of incubation
[6] = E. coli #2 - WDCM 00090 - 6.2×E3, specimen with <10,000 cells/mL, direct PCR after 16 hours of incubation, Ct at control 13.46
[7] = E. coli isolate JJ1887, direct PCR, Ct at control (average) 12.832
[8] = E. coli isolate JJ1887, direct PCR, at sensitive breakpoint

CC1(C)S[C@@H]2[C@H](NC(=O)[C@H](N)c3ccccc3)C(=O)N2[C@H]1C(=O)O [Ampicillin]
Molecular Antimicrobial Susceptibility Result [1, 3]: Sensitive (Antimicrobial wells with pathogen load detected below the control wells (typically >2 cycle thresholds later) may be reported as Sensitive) | Ct at Sensitive Breakpoint [1, 4]: 25.93 | Molecular Antimicrobial Susceptibility Result [1, 5]: Sensitive (Antimicrobial wells with pathogen load detected below the control wells (typically >2 cycle thresholds later) may be reported as Sensitive) | Ct at Sensitive Breakpoint [1, 6]: 26.22 | Ct at Sensitive Breakpoint [1, 7]: 12.265 | Molecular Antimicrobial Susceptibility Result [1, 8]: Resistant

Cc1nnc(SCC2=C(C(=O)O)N3C(=O)[C@@H](NC(=O)Cn4cnnn4)[C@H]3SC2)s1 [Cefazolin]
Molecular Antimicrobial Susceptibility Result [1, 3]: Sensitive (Antimicrobial wells with pathogen load detected below the control wells (typically >2 cycle thresholds later) may be reported as Sensitive) | Ct at Sensitive Breakpoint [1, 4]: 25.72 | Molecular Antimicrobial Susceptibility Result [1, 5]: Sensitive (Antimicrobial wells with pathogen load detected below the control wells (typically >2 cycle thresholds later) may be reported as Sensitive) | Ct at Sensitive Breakpoint [1, 6]: 26.56 | Ct at Sensitive Breakpoint [1, 7]: 12.804 | Molecular Antimicrobial Susceptibility Result [1, 8]: Resistant

CO/N=C(\C(=O)N[C@@H]1C(=O)N2C(C(=O)[O-])=C(C[N+]3(C)CCCC3)CS[C@H]12)c1csc(N)n1 [Cefepime]
Traditional Culture Result ([2]; A. baumannii isolate 1): Resistant | Traditional Culture Result ([2]; A. baumannii isolate 2): Resistant | Traditional Culture Result ([2]; A. baumannii isolate 3): Sensitive | Traditional Culture Result ([2]; A. baumannii isolate 4): Resistant | Traditional Culture Result ([2]; A. baumannii isolate 5): Resistant | Ct at Sensitive Breakpoint [1, 7]: 12.796 | Molecular Antimicrobial Susceptibility Result [1, 8]: Resistant

CO/N=C(\C(=O)N[C@@H]1C(=O)N2C(C(=O)O)=C(CSc3nc(=O)c(=O)[nH]n3C)CS[C@H]12)c1csc(N)n1 [Ceftriaxone]
Traditional Culture Result ([2]; A. baumannii isolate 1): Resistant | Traditional Culture Result ([2]; A. baumannii isolate 2): Resistant | Traditional Culture Result ([2]; A. baumannii isolate 3): Resistant | Traditional Culture Result ([2]; A. baumannii isolate 4): Resistant | Traditional Culture Result ([2]; A. baumannii isolate 5): Resistant | Molecular Antimicrobial Susceptibility Result [1, 3]: Sensitive (Antimicrobial wells with pathogen load detected below the control wells (typically >2 cycle thresholds later) may be reported as Sensitive) | Ct at Sensitive Breakpoint [1, 4]: 26.31 | Molecular Antimicrobial Susceptibility Result [1, 5]: Sensitive (Antimicrobial wells with pathogen load detected below the control wells (typically >2 cycle thresholds later) may be reported as Sensitive) | Ct at Sensitive Breakpoint [1, 6]: 27.18 | Ct at Sensitive Breakpoint [1, 7]: 12.353 | Molecular Antimicrobial Susceptibility Result [1, 8]: Resistant

O=C(O)c1cn(C2CC2)c2cc(N3CCNCC3)c(F)cc2c1=O [Ciprofloxacin]
Traditional Culture Result ([2]; A. baumannii isolate 1): Resistant | Traditional Culture Result ([2]; A. baumannii isolate 2): Resistant | Traditional Culture Result ([2]; A. baumannii isolate 3): Resistant | Traditional Culture Result ([2]; A. baumannii isolate 4): Resistant | Traditional Culture Result ([2]; A. baumannii isolate 5): Resistant | Ct at Sensitive Breakpoint [1, 7]: 12.215 | Molecular Antimicrobial Susceptibility Result [1, 8]: Resistant

C[C@@H]1O[C@@H]1P(=O)(O)O [Fosfomycin]
Molecular Antimicrobial Susceptibility Result [1, 3]: Sensitive (Antimicrobial wells with pathogen load detected below the control wells (typically >2 cycle thresholds later) may be reported as Sensitive) | Ct at Sensitive Breakpoint [1, 4]: 27.59 | Molecular Antimicrobial Susceptibility Result [1, 5]: Sensitive (Antimicrobial wells with pathogen load detected below the control wells (typically >2 cycle thresholds later) may be reported as Sensitive) | Ct at Sensitive Breakpoint [1, 6]: 28.41

C[C@H]1COc2c(N3CCN(C)CC3)c(F)cc3c(=O)c(C(=O)O)cn1c23 [Levofloxacin]
Ct at Sensitive Breakpoint [1, 7]: 12.562 | Molecular Antimicrobial Susceptibility Result [1, 8]: Resistant

C[C@@H](O)[C@H]1C(=O)N2C(C(=O)O)=C(S[C@@H]3CN[C@H](C(=O)N(C)C)C3)[C@H](C)[C@H]12 [Meropenem]
Traditional Culture Result ([2]; A. baumannii isolate 1): Resistant | Traditional Culture Result ([2]; A. baumannii isolate 2): Resistant | Traditional Culture Result ([2]; A. baumannii isolate 3): Resistant | Traditional Culture Result ([2]; A. baumannii isolate 4): Resistant | Traditional Culture Result ([2]; A. baumannii isolate 5): Resistant | Ct at Sensitive Breakpoint [1, 7]: 25.055 | Molecular Antimicrobial Susceptibility Result [1, 8]: Sensitive (Antimicrobial wells with pathogen load detected below the control wells (typically >2 cycle thresholds later) may be reported as Sensitive)

O=C1CN(/N=C/c2ccc([N+](=O)[O-])o2)C(=O)N1 [Nitrofurantoin]
Molecular Antimicrobial Susceptibility Result [1, 3]: Sensitive (Antimicrobial wells with pathogen load detected below the control wells (typically >2 cycle thresholds later) may be reported as Sensitive) | Ct at Sensitive Breakpoint [1, 4]: 27.90 | Molecular Antimicrobial Susceptibility Result [1, 5]: Sensitive (Antimicrobial wells with pathogen load detected below the control wells (typically >2 cycle thresholds later) may be reported as Sensitive) | Ct at Sensitive Breakpoint [1, 6]: 28.97 | Ct at Sensitive Breakpoint [1, 7]: 26.305 | Molecular Antimicrobial Susceptibility Result [1, 8]: Sensitive (Antimicrobial wells with pathogen load detected below the control wells (typically >2 cycle thresholds later) may be reported as Sensitive)

Ampicillin/Sulbactam
Traditional Culture Result ([2]; A. baumannii isolate 4): Sensitive | Traditional Culture Result ([2]; A. baumannii isolate 5): Sensitive | Ct at Sensitive Breakpoint [1, 7]: 12.693 | Molecular Antimicrobial Susceptibility Result [1, 8]: Resistant

Gentamicin
Traditional Culture Result ([2]; A. baumannii isolate 4): Sensitive | Traditional Culture Result ([2]; A. baumannii isolate 5): Sensitive | Molecular Antimicrobial Susceptibility Result [1, 3]: Sensitive (Antimicrobial wells with pathogen load detected below the control wells (typically >2 cycle thresholds later) may be reported as Sensitive) | Ct at Sensitive Breakpoint [1, 4]: 28.57 | Molecular Antimicrobial Susceptibility Result [1, 5]: Sensitive (Antimicrobial wells with pathogen load detected below the control wells (typically >2 cycle thresholds later) may be reported as Sensitive) | Ct at Sensitive Breakpoint [1, 6]: 28.70 | Ct at Sensitive Breakpoint [1, 7]: 12.308 | Molecular Antimicrobial Susceptibility Result [1, 8]: Resistant

Piperacillin/Tazobactam
Traditional Culture Result ([2]; A. baumannii isolate 1): Resistant | Traditional Culture Result ([2]; A. baumannii isolate 2): Resistant | Traditional Culture Result ([2]; A. baumannii isolate 3): Resistant | Traditional Culture Result ([2]; A. baumannii isolate 4): Resistant | Traditional Culture Result ([2]; A. baumannii isolate 5): Resistant | Molecular Antimicrobial Susceptibility Result [1, 3]: Sensitive (Antimicrobial wells with pathogen load detected below the control wells (typically >2 cycle thresholds later) may be reported as Sensitive) | Ct at Sensitive Breakpoint [1, 4]: 26.78 | Molecular Antimicrobial Susceptibility Result [1, 5]: Sensitive (Antimicrobial wells with pathogen load detected below the control wells (typically >2 cycle thresholds later) may be reported as Sensitive) | Ct at Sensitive Breakpoint [1, 6]: 27.46 | Ct at Sensitive Breakpoint [1, 7]: 23.923 | Molecular Antimicrobial Susceptibility Result [1, 8]: Sensitive (Antimicrobial wells with pathogen load detected below the control wells (typically >2 cycle thresholds later) may be reported as Sensitive)

Trimethoprim/Sulfamethoxazole [TMP/SMX]
Traditional Culture Result ([2]; A. baumannii isolate 1): Sensitive | Traditional Culture Result ([2]; A. baumannii isolate 2): Sensitive | Traditional Culture Result ([2]; A. baumannii isolate 3): Sensitive | Traditional Culture Result ([2]; A. baumannii isolate 4): Sensitive | Traditional Culture Result ([2]; A. baumannii isolate 5): Sensitive | Ct at Sensitive Breakpoint [1, 7]: 13.414 | Molecular Antimicrobial Susceptibility Result [1, 8]: Resistant
